Key:
Format in all cases: functional
[1] = Herbicidal activity against biennial weeds assessed as control at 1 kg/hacter post-emergently
Amaranthus spinosus = test: Herbicidal activity against Amaranthus spinosus assessed as control at 1 kg/hacter post-emergently
Solanum = test: Herbicidal activity against Solanum assessed as control at 1 kg/hacter post-emergently
Abutilon = test: Herbicidal activity against Abutilon assessed as control at 1 kg/hacter post-emergently

| Compound | Efficacy [1] | Efficacy (Amaranthus spinosus) | Efficacy (Solanum) | Efficacy (Abutilon) |
| --- | --- | --- | --- | --- |
| CCCC[C@H]1O[C@H]1CCOc1cccc([C@@H]2CCC[C@H](CC(=O)OC)O2)c1 | 10% | 30% | 90% | 10% |
| COC(=O)C[C@H]1CC[C@H](C)[C@@H](/C(C)=C/C=C/[C@@H](C)C[C@@]2(C)O[C@@H]2[C@H](C)[C@@H](OC)[C@@H](C)O)O1 [HERBOXIDIENE METHYL ESTER] | 100% | 100% | 100% | 100% |
